Data on seven compounds can be found in ChEMBL document CHEMBL1921757, “Small molecule probes of the receptor binding site in the Vibrio cholerae CAI-1 quorum sensing circuit” (Bioorg Med Chem, 2011).

Data set [1] has as its target T1, CAI-1 autoinducer sensor kinase/phosphatase CqsS (Vibrio cholerae serotype O1 (strain ATCC 39315 / El Tor Inaba N16961)) (UniProt Q9KM66).
T1 sequence (whole entry): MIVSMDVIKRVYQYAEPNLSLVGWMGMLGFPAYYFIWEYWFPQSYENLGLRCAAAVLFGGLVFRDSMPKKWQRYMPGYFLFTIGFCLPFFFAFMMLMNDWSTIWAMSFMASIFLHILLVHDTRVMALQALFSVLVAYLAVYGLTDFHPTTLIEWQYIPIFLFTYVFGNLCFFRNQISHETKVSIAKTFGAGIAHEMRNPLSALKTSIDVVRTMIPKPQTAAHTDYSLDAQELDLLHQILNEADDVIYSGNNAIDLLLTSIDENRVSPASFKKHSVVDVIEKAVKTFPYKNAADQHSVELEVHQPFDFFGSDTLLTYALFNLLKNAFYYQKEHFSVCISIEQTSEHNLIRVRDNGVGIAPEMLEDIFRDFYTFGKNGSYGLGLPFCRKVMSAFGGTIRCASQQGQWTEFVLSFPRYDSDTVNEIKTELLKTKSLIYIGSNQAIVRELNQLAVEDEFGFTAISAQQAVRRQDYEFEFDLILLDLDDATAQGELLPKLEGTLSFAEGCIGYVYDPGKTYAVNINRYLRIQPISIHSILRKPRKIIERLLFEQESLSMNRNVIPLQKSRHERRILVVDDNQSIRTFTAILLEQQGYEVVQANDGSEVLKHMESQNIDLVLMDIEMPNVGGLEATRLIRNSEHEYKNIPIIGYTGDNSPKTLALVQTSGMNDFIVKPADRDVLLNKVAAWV
In words: Agonist activity at CqsS receptor in cqsA-deficient, luxQ-deficient Vibrio cholerae MM920 harboring cosmid pBB1 carrying Vibrio harveyi luxCDABE gene assessed as maximal quorum sensing regulated bioluminescence at 50 uM after 4 hrs by scintillation counting relative to (S)-CAI-1. In kind it is functional.

Data set [2] addresses T2, CAI-1 autoinducer sensor kinase/phosphatase CqsS (Vibrio cholerae serotype O1 (strain ATCC 39315 / El Tor Inaba N16961), UniProt Q9KM66).
T2 sequence (Q9KM66 whole entry): T1 sequence (whole entry)
In words: Agonist activity at CqsS receptor in cqsA-deficient, luxQ-deficient Vibrio cholerae MM920 harboring cosmid pBB1 carrying Vibrio harveyi luxCDABE gene assessed as induction of quorum sensing regulated bioluminescence after 4 hrs by scintillation counting. In kind it is functional.

Data set [3] deals with T1, CAI-1 autoinducer sensor kinase/phosphatase CqsS (Vibrio cholerae serotype O1 (strain ATCC 39315 / El Tor Inaba N16961)). In words: Ratio of compound EC50 to (S)-CAI-1 EC50 for CqsS receptor in cqsA-deficient, luxQ-deficient Vibrio cholerae MM920 harboring cosmid pBB1 carrying Vibrio harveyi luxCDABE gene assessed as induction of quorum sensing regulated bioluminescence after 4 hrs by scintillation counting.

The subject of data set [4] is Vibrio cholerae. As to the kind of experiment: Antibacterial activity against Vibrio cholerae MM920 assessed as growth inhibition after 4 hrs by spectrophotometry. In kind it is organism-based. Particulars: in vivo; call rule not given here.
Data set [5] has as its target T2, CAI-1 autoinducer sensor kinase/phosphatase CqsS. As to the kind of experiment: Antagonist activity at CqsS receptor in Vibrio cholerae MM920 assessed as inhibition of quorum sensing regulated CAI-1 induced bioluminescence after 4 hrs by scintillation counting. The data set is classed as functional.
Data set [6] concerns the target T1, CAI-1 autoinducer sensor kinase/phosphatase CqsS (Vibrio cholerae serotype O1 (strain ATCC 39315 / El Tor Inaba N16961)). As to the kind of experiment: Antagonist activity at CqsS receptor in Vibrio cholerae MM920 assessed as inhibition of quorum sensing regulated CAI-1 induced bioluminescence after 4 hrs by scintillation counting relative to Ph-CAI-1. In kind it is functional.

Data set [7] has the same target. As to the kind of experiment: Ratio of compound IC50 to Ph-CAI-1 IC50 for CqsS receptor in Vibrio cholerae MM920 assessed as inhibition of quorum sensing regulated CAI-1 induced bioluminescence after 4 hrs by scintillation counting.

For orientation: Emax means the size of the effect at its maximum, as opposed to the concentration needed. Usually EC50 stands for the midpoint of the concentration-response curve. In the case of `CCCCCC(=O)[C@@H](O)CC`, the Emax in data set [1] was determined as 27%. Besides, the concentration for a half-maximal effect (EC50) in data set [2] is over 50 µM. Further, the Ratio EC50 in data set [3] was over 200. Further, the “growth inhibition (GI)” value in data set [4] is “Not Active”.

Regarding `CCCCCCC(=O)[C@@H](O)CC`, the Emax in data set [1] was 59%. Also, the EC50 in data set [2] was over 50 µM. Also, the Ratio EC50 in data set [3] is over 200. The “growth inhibition (GI)” value in data set [4] is listed as “Not Active”.

Consider `CCCCCCCCCCCCC(=O)[C@@H](O)CC`, for which, in data set [1], the Emax turned out to be 45%. The EC50 in data set [2] was over 50 µM. In addition, the Ratio EC50 in data set [3] is over 200. Besides, the “growth inhibition (GI)” value in data set [4] is given as “Not Active”.

Broadly, the IC50 is the concentration that inhibits the measured activity by half. For the compound `CCCCCCCCCC(=O)C(O)c1ccc(F)cc1` (racemic), the IC50 in data set [5] is 137 µM. Moreover, in data set [6], the Imax worked out at 125%. For the same compound, the Ratio IC50 in data set [7] was found to be 2.7. Moreover, the “growth inhibition (GI)” value in data set [4] is reported as “Not Active”.

For `CCCCCCCCCC(=O)C(O)c1cc(F)ccc1F` (racemic), the IC50 in data set [5] was 68 µM. Besides, the Imax in data set [6] came out at 48%. For the same compound, the Ratio IC50 in data set [7] stood at 1.3. For the same compound, the “growth inhibition (GI)” value in data set [4] is “Not Active”.

As to `CCCCCCCCCC(=O)C(O)c1ccc(Br)cc1` (racemic), the IC50 in data set [5] amounted to 185 µM. In addition, the Imax in data set [6] was determined as 71%. In addition, the Ratio IC50 in data set [7] was determined as 2.6. For the same compound, the “growth inhibition (GI)” value in data set [4] is recorded as “Not Active”.

As for `CCCCCCCCCC(=O)C(O)Cc1ccccc1` (racemic), the IC50 in data set [5] turned out to be 136 µM. Moreover, the Imax in data set [6] amounted to 124%. In data set [7], the Ratio IC50 was found to be 1.9. For the same compound, in data set [4], the “growth inhibition (GI)” value was “Not Active”.
